# Measurements reported in PubChem BioAssay (NCI).
#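 GI50: concentration for 50% inhibition of growth. TGI marks complete inhibition of growth.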
# How the values were obtained:
# Assay in all cases: NCI-60 cell line screen, 384-well format
# [1] = tested on: 786-0 renal
# [2] = tested on: A498 renal
# [3] = tested on: A549 NSCLC
# [4] = tested on: ACHN renal
# [5] = tested on: BT-549 breast
# [6] = tested on: CAKI-1 renal
# [7] = tested on: CCRF-CEM leukemia
# [8] = tested on: COLO 205 colon
# [9] = tested on: DU-145 prostate
# [10] = tested on: EKVX NSCLC
# [11] = tested on: HCC-2998 colon
# [12] = tested on: HCT-116 colon
# [13] = tested on: HCT-15 colon
# [14] = tested on: HL-60(TB) leukemia
# [15] = tested on: HOP-62 NSCLC
# [16] = tested on: HOP-92 NSCLC
# [17] = tested on: HT29 colon
# [18] = tested on: IGROV1 ovarian
# [19] = tested on: K-562 leukemia
# [20] = tested on: KM12 colon
# [21] = tested on: LOX IMVI melanoma
# [22] = tested on: M14 melanoma
# [23] = tested on: MALME-3M melanoma
# [24] = tested on: MCF7 breast
# [25] = tested on: MDA-MB-231 breast
# [26] = tested on: MDA-MB-435 melanoma
# [27] = tested on: MDA-MB-468 breast
# [28] = tested on: MOLT-4 leukemia
# [29] = tested on: NCI-H226 lung
# [30] = tested on: NCI-H23 lung
# [31] = tested on: NCI-H322M lung
# [32] = tested on: NCI-H460 NSCLC
# [33] = tested on: NCI-H522 lung
# [34] = tested on: NCI/ADR-RES ovarian
# [35] = tested on: OVCAR-3 ovarian
# [36] = tested on: OVCAR-4 ovarian
# [37] = tested on: OVCAR-5 ovarian
# [38] = tested on: OVCAR-8 ovarian
# [39] = tested on: PC-3 prostate
# [40] = tested on: RPMI-8226 leukemia
# [41] = tested on: RXF 393 renal
# [42] = tested on: SF-268 CNS
# [43] = tested on: SF-295 CNS
# [44] = tested on: SF-539 CNS
# [45] = tested on: SK-MEL-2 melanoma
# [46] = tested on: SK-MEL-28 melanoma
# [47] = tested on: SK-MEL-5 melanoma
# [48] = tested on: SK-OV-3 ovarian
# [49] = tested on: SN12C renal
# [50] = tested on: SNB-19 CNS
# [51] = tested on: SNB-75 CNS
# [52] = tested on: SR leukemia
# [53] = tested on: SW-620 colon
# [54] = tested on: T-47D breast
# [55] = tested on: TK-10 renal
# [56] = tested on: U251 glioblastoma
# [57] = tested on: UACC-257 melanoma
# [58] = tested on: UACC-62 melanoma
# [59] = tested on: UO-31 renal
compound,measurement,setting,value
Cc1nn(C)c(COc2ccc(N3CCN(S(=O)(=O)N(C)C)CC3)cc2)c1-c1cccc2c(CCCOc3cccc4ccccc34)c(C(=O)O)n(CCN3CCOCC3)c12,GI50,[1],5.67 µM
same,TGI,[1],13.8 µM
same,GI50,[2],3.63 µM
same,TGI,[2],11.1 µM
same,GI50,[3],9.44 µM
same,TGI,[3],23.3 µM
same,GI50,[4],6.55 µM
same,TGI,[4],17.6 µM
same,GI50,[5],3.49 µM
same,TGI,[5],8.64 µM
same,GI50,[6],6.88 µM
same,TGI,[6],17.6 µM
same,GI50,[7],2410 nM
same,TGI,[7],4.78 µM
same,GI50,[8],4.33 µM
same,TGI,[8],13.3 µM
same,GI50,[9],6.23 µM
same,TGI,[9],16.2 µM
same,GI50,[10],4.87 µM
same,TGI,[10],16.7 µM
same,GI50,[11],3.09 µM
same,TGI,[11],7.88 µM
same,GI50,[12],2870 nM
same,TGI,[12],8.51 µM
same,GI50,[13],12.1 µM
same,TGI,[13],25.5 µM
same,GI50,[14],2120 nM
same,TGI,[14],3.58 µM
same,GI50,[15],4.22 µM
same,TGI,[15],11.3 µM
same,GI50,[16],3.32 µM
same,TGI,[16],8.76 µM
same,GI50,[17],2720 nM
same,TGI,[17],7.13 µM
same,GI50,[18],3.11 µM
same,TGI,[18],8.58 µM
same,GI50,[19],4.21 µM
same,TGI,[19],13.8 µM
same,GI50,[20],4.51 µM
same,TGI,[20],12.2 µM
same,GI50,[21],5.6 µM
same,TGI,[21],13.5 µM
same,GI50,[22],4.13 µM
same,TGI,[22],9.35 µM
same,GI50,[23],3.73 µM
same,TGI,[23],10.5 µM
same,GI50,[24],3.06 µM
same,TGI,[24],8.69 µM
same,GI50,[25],4.49 µM
same,TGI,[25],13.3 µM
same,GI50,[26],4.32 µM
same,TGI,[26],14.6 µM
same,GI50,[27],2300 nM
same,TGI,[27],4.43 µM
same,GI50,[28],2020 nM
same,TGI,[28],3.66 µM
same,GI50,[29],3.65 µM
same,TGI,[29],10.3 µM
same,GI50,[30],3.54 µM
same,TGI,[30],9.43 µM
same,GI50,[31],6.07 µM
same,TGI,[31],14.6 µM
same,GI50,[32],5.22 µM
same,TGI,[32],14.9 µM
same,GI50,[33],2640 nM
same,TGI,[33],5.42 µM
same,GI50,[34],32.8 µM
same,TGI,[34],> 92.7 µM
same,GI50,[35],2320 nM
same,TGI,[35],5.26 µM
same,GI50,[36],3.43 µM
same,TGI,[36],9.25 µM
same,GI50,[37],5.75 µM
same,TGI,[37],16.2 µM
same,GI50,[38],3.73 µM
same,TGI,[38],12.9 µM
same,GI50,[39],3.72 µM
same,TGI,[39],10.9 µM
same,GI50,[40],1760 nM
same,TGI,[40],3.16 µM
same,GI50,[41],1790 nM
same,TGI,[41],5.04 µM
same,GI50,[42],5.48 µM
same,TGI,[42],15.2 µM
same,GI50,[43],2940 nM
same,TGI,[43],7.54 µM
same,GI50,[44],3.57 µM
same,TGI,[44],9.98 µM
same,GI50,[45],2140 nM
same,TGI,[45],3.92 µM
same,GI50,[46],3.07 µM
same,TGI,[46],7.47 µM
same,GI50,[47],2920 nM
same,TGI,[47],7.26 µM
same,GI50,[48],5.61 µM
same,TGI,[48],13.6 µM
same,GI50,[49],3.55 µM
same,TGI,[49],12.7 µM
same,GI50,[50],3.77 µM
same,TGI,[50],12.8 µM
same,GI50,[51],3.52 µM
same,TGI,[51],8.36 µM
same,GI50,[52],1570 nM
same,TGI,[52],2930 nM
same,GI50,[53],3.46 µM
same,TGI,[53],10.6 µM
same,GI50,[54],3.6 µM
same,TGI,[54],10.8 µM
same,GI50,[55],4.94 µM
same,TGI,[55],14.1 µM
same,GI50,[56],3.67 µM
same,TGI,[56],11.8 µM
same,GI50,[57],2990 nM
same,TGI,[57],7.34 µM
same,GI50,[58],2670 nM
same,TGI,[58],5.65 µM
same,GI50,[59],9.73 µM
same,TGI,[59],21.5 µM
